Measurements as given in patent US7276536B2, “Method for increasing the bioavailability of the active form of S-[2-([[1-(2-ethylbutyl)cyclohexyl]carbonyl]amino) phenyl] 2-methylpropanethioate” (Japan Tobacco Inc., priority 2003, dated 2007).

Key:
[1] = biological target: T1, cholesteryl ester transfer protein (CETP) (Homo sapiens, UniProt P11597); assay: CETP activity change from baseline after 900 mg oral Compound I, fed vs fasted (Example 2); assay type: in vivo, human (Caucasian male patients); conditions: mean
T1 construct: from tissue; host or cells: samples from dosed male patients (CETP is described as a plasma protein)
T1 sequence (P11597 18-493): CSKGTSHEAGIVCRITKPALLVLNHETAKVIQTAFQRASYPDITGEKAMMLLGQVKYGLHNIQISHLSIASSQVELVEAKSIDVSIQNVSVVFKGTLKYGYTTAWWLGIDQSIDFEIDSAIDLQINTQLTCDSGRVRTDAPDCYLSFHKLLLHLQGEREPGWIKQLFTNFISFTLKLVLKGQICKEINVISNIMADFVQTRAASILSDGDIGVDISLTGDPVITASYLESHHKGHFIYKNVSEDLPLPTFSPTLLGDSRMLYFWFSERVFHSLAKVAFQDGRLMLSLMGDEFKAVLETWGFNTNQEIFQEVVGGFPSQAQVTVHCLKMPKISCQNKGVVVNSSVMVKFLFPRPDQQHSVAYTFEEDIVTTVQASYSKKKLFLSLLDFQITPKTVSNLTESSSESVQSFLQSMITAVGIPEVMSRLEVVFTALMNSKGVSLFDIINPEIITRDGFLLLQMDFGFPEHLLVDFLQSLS
Description: Administration, dosing, and sampling schedules were substantially similar to those described in Example 1.
The procedure for determining CETP activity was substantially similar to the procedures described in Tollefson et al., Methods Enzymol., 129, 797-816 (1986), and Kato et al., J. Biol. Chem., 264, 4082-4087 (1989).
CETP activity and changes from baseline (pre-dose) were measured, and the resulting data is summarized in Table 2 as percentage change from baseline. The mean changes from baseline (pre-dose) in CETP activity over time are set out in the plot of FIG. 3.

[2] = Food-effect pharmacokinetic study, 600 mg oral Compound I, fed vs fasted (Example 4); assay type: in vivo, human (Japanese male volunteers)
Description: Administration, dosing, and sampling schedules were commensurate with those described in Example 1. […] Patients were administered two tablets of 300 mg each. The tablets were prepared as described in Example 1.

In the case of `CCC(CC)CC1(C(=O)Nc2ccccc2SC(=O)C(C)C)CCCCC1` [Compound I, S-[2-([[1-(2-ethylbutyl)cyclohexyl]carbonyl]amino)phenyl]2-methylpropanethioate], the “Percent change from pre-dose in CETP activity” value (“Percent change from pre-dose” for short) ([1]; Fasted, 1 h) is reported as 1%, the “Percent change from pre-dose” value ([1]; Fasted, 2 h) is reported as 2% and the “Percent change from pre-dose” value ([1]; Fasted, 4 h) is reported as −4%. For the same compound, the “Percent change from pre-dose” value ([1]; Fasted, 6 h) was −10%, the “Percent change from pre-dose” value ([1]; Fasted, 8 h) was −15% and the “Percent change from pre-dose” value ([1]; Fasted, 24 h) was −10%. For the same compound, the “Percent change from pre-dose” value ([1]; Fed, 1 h) was −1%, the “Percent change from pre-dose” value ([1]; Fed, 2 h) was −16% and the “Percent change from pre-dose” value ([1]; Fed, 4 h) was −44%. The “Percent change from pre-dose” value ([1]; Fed, 6 h) was −59%, the “Percent change from pre-dose” value ([1]; Fed, 8 h) was −58% and the “Percent change from pre-dose” value ([1]; Fed, 24 h) was −34%. The “AUC0-∞ times higher with food as compared to without food” value [2] was ~2 times.
